Data taken from patent publication US8642588B2, “Short-acting benzodiazepine salts and their polymorphic forms” (priority 2006, dated 2014).
Values after ≈ are worked out from the molar mass of the structure shown. Where two headings read alike, the source gives them in different places.

How the values were obtained:
Type in all cases: physicochemical
[1] = Solubility in water; details: thermodynamic from solid, 25° C., maximum 10 mg/ml of parent free form
Procedure: This was measured by suspending enough compound in 0.25 ml of solvent (water) to give a maximum final concentration of 10 mg/ml of the parent free form of the compound. The suspension was equilibrated at 25° C. for 24 hrs followed by a pH check and filtration through a glass fibre C 96 well plate. The filtrate is then diluted down 101×. Quantitation was by HPLC with reference to a standard dissolved in DMSO at approx 0.1 mg/ml. Different volumes of the standard, diluted and undiluted tests were injected. The solubility was calculated by integration of the peak area found at the same retention time as the peak maximum in the standard injection. If there is sufficient solid in the filter plate the XRPD is normally checked for phase changes, hydrate formation, amorphization, crystallization etc.

[2] = pKa determination (potentiometric titration, Sirius GlpKa); details: MeOH:H2O mixtures, extrapolated to 0% co-solvent, free base
Procedure: Two basic centres of the free base of the compound were measured for pKa. […] The pKa of the basic centre of the imidazole ring was measured to be 4.53.
pka determination was performed on a Sirius GlpKa instrument with D-PAS attachment. Measurements were made by potentiometric titration in MeOH:H2O mixtures at 25° C. The titration media was ionic strength adjusted with 0.15M KCl. The values found in the MeOH:H2O mixtures were extrapolated to 0% co-solvent via a Yasuda-Shedlovsky extrapolation.

[3] = Solubility in organic solvents; details: organic solvent or mixture, read-out: Min solvent required (solubility)
Procedure: The solubility of the compound of formula (I) was determined in a wide range of organic solvents.

[4] = Solid-state stability study of compound of formula (I) (appearance, HPLC content); details: 34 days
Procedure: Method/Technique. 2 mg samples of compound of formula (I), accurately weighed, were placed in 4-mL clear glass screw-cap vials. Samples were tested at initial and after 34 days stored at 5° C./Ambient Relative Humidity (AMRH) Closed, 30° C./60% RH Closed, 40° C./75% RH Open and 60° C./AMRH Closed.
Samples were inspected visually for appearance. Compound of formula (I) content values were determined by the HPLC method in Table 1. The % weight/weight (% w/w) values were measured relative to standard samples of compound of formula (I) Batch U12438/79/1. The % area values were obtained by dividing the compound of formula (I) peak area by the total peak area.

Row | SMILES | solubility at 24 h [1] | pKa ([2]; basic centre of the imidazole ring) | pKa ([2]; basic centre of the pyridine ring) | solubility ([3]; acetone) | solubility ([3]; acetonitrile) | solubility ([3]; ethanol) | solubility ([3]; ethyl acetate) | solubility ([3]; methanol) | solubility ([3]; propan-2-ol) | solubility ([3]; tetrahydrofuran) | solubility ([3]; toluene) | Appearance ([4]; 40 C./75% RH Open) | Appearance ([4]; 60 C./AMRH Closed)
1 | COC(=O)CC[C@@H]1N=C(c2ccccn2)c2cc(Br)ccc2-n2c(C)cnc21 [LJC-039-034-1] | 7.8 mg/mL (≈ 17.8 mM) | – | – | – | – | – | – | – | – | – | – | – | –
2 | COC(=O)CC[C@@H]1N=C(c2ccccn2)c2cc(Br)ccc2-n2c(C)cnc21 [compound of formula (I), Methyl 3-[(4S)-8-bromo-1-methyl-6-(2-pyridinyl)-4H-imidazol[1,2-a][1,4]benzodiazepin-4-yl]propanoate] | – | 4.53 | 1.99 | 214 mg/mL | 362 mg/mL | 324 mg/mL | 218 mg/mL | 446 mg/mL | 454 mg/mL | 311 mg/mL | 460 mg/mL | Deliquesced yellow mass on bottom | Deliquesced dark yellow to orange
